The assay concerns the target T1, JelRh (box jellyfish rhodopsin) (Carybdea rastonii, UniProt B6F0Y5).
T1 construct: gene cubop; opsin gene in pFastBac HT vector with C-terminal rho 1D4 tag (TETSQVAPA), Sf9 baculovirus expression, DDM-solubilized, 1D4-purified, wild type reconstituted in PC liposomes
T1 sequence (B6F0Y5 1-330): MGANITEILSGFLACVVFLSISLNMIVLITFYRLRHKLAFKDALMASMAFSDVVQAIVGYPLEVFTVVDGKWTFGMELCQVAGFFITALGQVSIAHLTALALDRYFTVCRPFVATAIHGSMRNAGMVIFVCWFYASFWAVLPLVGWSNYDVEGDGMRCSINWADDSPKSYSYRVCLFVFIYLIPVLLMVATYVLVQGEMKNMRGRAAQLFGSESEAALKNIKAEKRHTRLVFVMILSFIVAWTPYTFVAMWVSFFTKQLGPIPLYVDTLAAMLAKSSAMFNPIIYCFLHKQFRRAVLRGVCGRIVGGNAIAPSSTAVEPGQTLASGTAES
Description: low-temperature UV-visible and FTIR difference spectroscopy of reconstituted pigment. The class given is binding. The settings on record: 77 K.

Molecules are shown by their SMILES.

Regarding `CC1=C(/C=C/C(C)=C\C=C\C(C)=C\C=O)C(C)(C)CCC1` [9-cis-retinal], for the setting “covalent (protonated Schiff base), 9-cis bound form (Iso-JelRh) made in situ by >520 nm illumination of Batho”, the “low-temperature UV-visible and FTIR difference spectroscopy of reconstituted pig” value is listed as “confirming the formation of the 9-cis bound form (so-called Iso-rhodopsin or Iso)”.
As to `CC1=C(/C=C/C(C)=C/C=C\C(C)=C\C=O)C(C)(C)CCC1` [11-cis-retinal], under “covalent (protonated Schiff base), PC liposomes, hydrated film, 11-cis-retinal added at 30 uM to membranes”, the “low-temperature UV-visible and FTIR difference spectroscopy of reconstituted pig” value is “The sample after membrane preparation was reconstituted with 11-cis-retinal overnight”.
For the molecule `CC1=C(/C=C/C(C)=C/C=C/C(C)=C/C=O)C(C)(C)CCC1` [all-trans-retinal], for the setting “covalent (Schiff base), all-trans bound Batho intermediate made in situ by 500 nm illumination”, the “low-temperature UV-visible and FTIR difference spectroscopy of reconstituted pig” value was “the isomerization from 11-cis to all-trans retinal in JelRh is similar to that of BovRh”.

These data come from PMC10220492, “Investigating the mechanism of photoisomerization in jellyfish rhodopsin with the counterion at an atypical position” (The Journal of Biological Chemistry, 2023).
